# Columns and labels:
# [1] = molecular target: T1, Epidermal Growth Factor Receptor Kinase (EGF-R) (Homo sapiens, UniProt P00533); assay: Inhibition of Epidermal Growth Factor Receptor Kinase (EGF-R) using recombinant enzyme; format: biochemical; details: for inhibition at 0.5 µM: 0.5 µM concentration of test compound
# T1 construct: containing the EGFR cDNA encoding amino acids 645 - 1186 preceded by Met-Ala-(His)6; Met-Ala-(His)6 (N); made in house; host or cells: Sf9 insect cells (baculovirus vHcEGFR52)
# T1 sequence (P00533 669-1210): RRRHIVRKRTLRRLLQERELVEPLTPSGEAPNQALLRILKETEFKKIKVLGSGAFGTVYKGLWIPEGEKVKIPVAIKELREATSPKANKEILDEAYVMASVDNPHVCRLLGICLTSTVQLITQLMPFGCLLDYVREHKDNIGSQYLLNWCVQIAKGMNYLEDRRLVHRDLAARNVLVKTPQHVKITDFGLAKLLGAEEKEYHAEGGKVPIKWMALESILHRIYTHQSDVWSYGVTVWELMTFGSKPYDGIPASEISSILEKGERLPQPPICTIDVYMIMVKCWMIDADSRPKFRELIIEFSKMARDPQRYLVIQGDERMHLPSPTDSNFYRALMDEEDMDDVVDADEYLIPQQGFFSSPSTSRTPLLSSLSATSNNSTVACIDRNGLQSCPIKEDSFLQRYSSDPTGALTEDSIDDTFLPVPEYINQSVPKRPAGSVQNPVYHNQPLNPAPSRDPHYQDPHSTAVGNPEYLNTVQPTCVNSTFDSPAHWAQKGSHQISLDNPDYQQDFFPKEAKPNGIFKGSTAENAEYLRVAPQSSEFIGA
# Description: Representative test compounds were evaluated for their ability to inhibit the phosphorylation of the tyrosine residue of a peptide substrate catalyzed by the enzyme epidermal growth factor receptor kinase. The peptide substrate (RR-SRC) has the sequence arg-arg-leu-ile-glu-asp-ala-glu-tyr-ala-ala-arg-gly. The enzyme used in this assay is the His-tagged cytoplasmic domain of EGFR. A recombinant baculovirus (vHcEGFR52) was constructed containing the EGFR cDNA encoding amino acids 645 - 1186 preceded by Met-Ala-(His)6. Sf9 cells in 100 mm plates were infected at an moi of 10 pfu/cell and cells were harvested 48 hours post infection. A cytoplasmic extract was prepared using 1% Triton X-100 and applied to Ni-NTA column. After washing the column with 20 mM imidazole, HcEGFR was eluted with 250 mM imidazole (in 50 mM Na2HPO4, pH 8.0, 300 mM NaCl). Fractions collected were dialyzed against 10 mM HEPES, pH 7.0, 50 mM NaCl, 10% glycerol, 1µg/mL antipain and leupeptin and 0.1 mM Pefabloc SC. The protein was frozen in dry ice/methanol and stored -70° C.
# Test compounds were made into 10 mg/mL stock solutions in 100% dimethylsulfoxide (DMSO). Prior to experiment, stock solutions were diluted to 500 µM with 100% DMSO and then serially diluted to the desired concentration with HEPES buffer (30 mM HEPES pH 7.4).
# For the enzyme reaction, 10 µL of each inhibitor (at various concentrations) were added to each well of a 96-well plate. To this was added 3 µL of enzyme (1:10 dilution in 10mM HEPES, pH 7.4 for final conc. of 1:120). This was allowed to sit for 10 minutes on ice and was followed by the addition of 5 µl peptide (80 uM final conc.), 10µl of 4X Buffer (Table A), 0.25 µL ^33P-ATP and 12 µL H2O. The reaction was allowed to run for 90 minutes at room temperature and was followed by spotting the entire volume on to precut P81 filter papers. The filter discs were washed 2X with 0.5% phosphoric acid and radioactivity was measured using a liquid scintillation counter. Table A
# The inhibition data for representative compounds of the invention are shown below in TABLE 1. The IC50 is the concentration of test compound needed to reduce the total amount of phosphorylated substrate by 50%. The % inhibition of the test compound was determined for at least three different concentrations and the IC50 value was evaluated from the dose response curve. […] CPM(control) is in units of counts per minute and was a number expressing the amount of radiolabeled ATP (γ-^33P) incorporated into the RR-SRC peptide substrate by the enzyme after 90 minutes at room temperature in the absence of test compound as measured by liquid scintillation counting. The CPM values were corrected for the background counts produced by ATP in the absence of the enzymatic reaction. Where it was possible to determine an IC50 value, this is reported in TABLE 1 otherwise the % inhibition at 0.5 µM concentration of test compound is shown in TABLE 1.
# SW620 = assay: Inhibition of cancer cell growth as measured by cell number (Sulforhodamine B); format: cell-based; details: Homo sapiens, SW-620; 48 hours exposure
# Description: (§1) Human tumor cell lines were plated in 96-well plates (250 µl/well, 1-6 x 10^4 cells/ml) in RPMI 1640 medium, containing 5% FBS (Fetal Bovine Serum). […] After 48 hours exposure to test compounds, cells were fixed with trichloroacetic acid, and stained with Sulforhodamine B. After washing with trichloroacetic acid, bound dye was solubilized in 10 mM Tris base and optical density was determined using a plate reader. Under conditions of the assay the optical density is proportional to the number of cells in the well. IC50s (concentrations causing 50% inhibition of cell growth) were determined from the growth inhibition plots. The test procedure is described in details by Philip Skehan et. al, J.Natl. Canc. Inst., 82, 1107-1112 (1990). […] Information about some of the cell lines used in these test procedures is available from the American Type Tissue Collection: Cell Lines and Hybridomas, 1994 Reference Guide, 8th Edition. The Her2Neu cell line is a 3T3 line that has been transfected with Her2 receptor kinase.
# Her2Neu = assay: as above; format: cell-based; details: 48 hours exposure; 3T3 line transfected with Her2 receptor kinase
# Description: as §1
# A431 = assay: as above; format: cell-based; details: Homo sapiens, A-431; 48 hours exposure
# Description: as §1
# 3T3 = assay: as above; format: cell-based; details: Mus musculus, NIH3T3; 48 hours exposure
# Description: as §1
# MDA435 = assay: as above; format: cell-based; details: Homo sapiens, 48 hours exposure
# Description: as §1
# [2] = tested on: Human Epidermoid Tumors (A431); assay: In vivo inhibition of the growth of human epidermoid tumors (A431); parameters: species or system BALB/c nu/nu female mice; details: for %T/C / RTG Day 7 / RTG Day 14 / RTG Day 21: days 1 through 10; for S/T: # of Survivors/# of Treated on Day +21
# Description: BALB/c nu/nu female mice (Charles River, Wilmington, MA) were used in the in vivo standard pharmacological test procedures. Human epidermoid carcinoma cells A-431 (American Type Culture Collection, Rockville, Maryland # CRL-155) were grown in vitro as described above. A unit of 5 X 10^6 cells were injected subcutaneously into mice. When tumors attained a mass of between 100 and 150 mg, the mice were randomized into treatment groups (day zero). Mice were treated orally (PO) once a day on days 1 through 10 post staging with doses of either 40, 20, 10, 3 or 1 mg/kg/dose of the compound to be evaluated in 0.2% Klucel. Control animals received no drug. Tumor mass was determined every 7 days [(length X width^2)/2] for 28 days post staging. Relative tumor growth (Mean tumor mass on day 7, 14, and 21 divided by the mean tumor mass on day zero) is determined for each treatment group. The %T/C (Tumor/Control) is determined by dividing the relative tumor growth of the treated group by the relative tumor growth of the placebo group and multiplying by 100. A compound is considered to be active if the %T/C is found to be […].
# SKBR3 = assay: Inhibition of cancer cell growth as measured by cell number (Sulforhodamine B); format: cell-based; details: Homo sapiens, SK-BR-3; 48 hours exposure
# Description: as §1
# c-Met = molecular target: T2, c-Met (Homo sapiens, UniProt P08581); assay: DELFIA assay for c-Met receptor kinase inhibitors; format: biochemical
# T2 construct: The cytoplasmic domain of c-Met was generated by reverse transcriptase-polymerase chain reaction; His tag (from pFastBac-HTc vector; purified on Ni-NTA/Talon); made in house; host or cells: Sf9 insect cells (baculovirus)
# T2 sequence (P08581 956-1390 limits assumed): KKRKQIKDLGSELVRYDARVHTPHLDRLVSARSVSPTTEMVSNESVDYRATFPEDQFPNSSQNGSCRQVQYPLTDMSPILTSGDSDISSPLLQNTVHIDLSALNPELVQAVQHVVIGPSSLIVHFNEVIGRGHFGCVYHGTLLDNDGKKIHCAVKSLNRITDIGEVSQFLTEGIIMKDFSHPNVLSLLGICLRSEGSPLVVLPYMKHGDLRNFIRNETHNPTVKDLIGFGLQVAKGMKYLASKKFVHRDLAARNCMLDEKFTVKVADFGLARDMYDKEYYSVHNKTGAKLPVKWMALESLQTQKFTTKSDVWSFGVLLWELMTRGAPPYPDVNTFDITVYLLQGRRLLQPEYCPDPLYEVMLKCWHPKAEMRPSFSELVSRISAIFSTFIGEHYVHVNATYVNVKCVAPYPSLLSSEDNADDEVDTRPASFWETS
# Description: The c-Met kinase assay was performed as a DELFIA (dissociation enchanced lanthanide fluorometric immunoassay), an ELISA-like protocol based upon time-resolved fluorometry as described previously [Braunwalder, A. F., Yarwood, D.R., Sills, M.A., and Lipson, K.E., Anal. Biochem. 238, 159-164 (1996)]. The protocol was adopted for the screening of inhibitors of the kinase activity of recombinant c-Met. [Loganzo, F., and. Hardy, C., American Biotechnology Laboratory 16(13), 26-28 (1998)]. The cytoplasmic domain of c-Met was generated by reverse transcriptase-polymerase chain reaction using RNA isolated from human mammary epithelial cells as template, cloned into the pFastBac-HTc vector (Life Technologies) and protein expressed in Sf9 insect cells by baculovirus infection. Protein was purified by imidazole elution from Ni-NTA resin (Invitrogen, Carlsbad, CA) or Talon resin (Clontech, Palo Alto, CA). Various conditions were evaluated for the kinase screening protocol and screening was accomplished with the following method. Polystyrene Maxisorp plates (Nunc) were pre-coated for 1 hour to overnight at room temperature with 5 µg/ml poly(Glu4-Tyr) diluted in Tris-buffered saline (TBS). Plates were washed 3X with TBS. c-Met protein preparation was diluted 1:80 into 0.1% BSA/ 4 mM HEPES. A master mix was prepared consisting of: 1 volume of diluted c-Met, 1 volume of 5X buffer (20 mM HEPES, pH 7.4; 2 mM MnCl2; 100 µM Na3VO4; 1 mM DTT), 0.9 volume of water. Master mix (29 µl) was added to the wells of peptide-coated microtiter plates. For assays where c-Met autophosphorylation was evaluated, plates were uncoated and c-Met was diluted into 4 mM HEPES at 1:40 without BSA. Compounds (1 µl) at various dilutions (1 mM to 0.1 µM) prepared in DMSO were added and mixed well with an automatic piptettor. After incubation 20 minutes at room temperature, the reaction was initiated with 20 µl of 62.5 µM ATP/ 50 mM MgCl2 (final 25 µM ATP/ 20 mM MgCl2 in assay). Reactions were incubated 45 minutes at room temperature. Plates were then washed 3X with 100 µl each of DELFIA wash buffer (Wallac). Antibody binding was performed by adding 75 µl of Europium-conjugated anti-phosphotyrosine diluted 1:2000 in Assay Buffer (Wallac) for 1 hour at room temperature. Plates were washed 3X with DELFIA wash buffer. Detection was done by addition of 100 µl of Enhancement Solution (Wallac). After 30 minutes, plates were read in a Wallac VICTOR-2 time-resolved fluorometer. Inhibition data was reported as europium counts for compound treated wells normalized to control counts. IC50 values were obtained by using log doses of compound and calculated using Data Analysis Toolbox software, version 1.0.2 (MDL Information Systems, Inc.).
smiles,measurement,setting,value
"CN(C)C/C=C/C(=O)N1CCOc2cc3ncc(C#N)c(Nc4ccc(F)c(Cl)c4)c3cc21 [Example 9, 9-(3-Chloro-4-fluoroanilino)-1-[(2E)-4-(dimethylamino)-2-butenoyl]-2,3-dihydro-1H-[1,4]oxazino[3,2-g]quinoline-8-carbonitrile]",inhibition at 0.5 µM,[1],56.5%
same,IC50,[1]; recombinant enzyme,170 nM
same,IC50,SW620,0.165 µg/mL
same,IC50,Her2Neu,0.15 µg/mL
same,IC50,A431,0.108 µg/mL
same,IC50,3T3,0.169 µg/mL
same,IC50,MDA435,0.24 µg/mL
same,%T/C,"[2]; 1 mg/kg/dose PO, Day 7",103%
same,RTG Day 7,"[2]; 1 mg/kg/dose PO, Day 7",4.66
same,%T/C,"[2]; 1 mg/kg/dose PO, Day 14",73%
same,RTG Day 14,"[2]; 1 mg/kg/dose PO, Day 14",8.11
same,%T/C,"[2]; 1 mg/kg/dose PO, Day 21",76%
same,RTG Day 21,"[2]; 1 mg/kg/dose PO, Day 21",13.23
same,S/T,[2]; 1 mg/kg/dose PO,5/5
same,%T/C,"[2]; 3 mg/kg/dose PO, Day 7",104%
same,RTG Day 7,"[2]; 3 mg/kg/dose PO, Day 7",4.76
same,%T/C,"[2]; 3 mg/kg/dose PO, Day 14",107%
same,RTG Day 14,"[2]; 3 mg/kg/dose PO, Day 14",11.79
same,%T/C,"[2]; 3 mg/kg/dose PO, Day 21",137%
same,RTG Day 21,"[2]; 3 mg/kg/dose PO, Day 21",23.77
same,S/T,[2]; 3 mg/kg/dose PO,5/5
same,%T/C,"[2]; 10 mg/kg/dose PO, Day 7",105%
same,RTG Day 7,"[2]; 10 mg/kg/dose PO, Day 7",4.81
same,%T/C,"[2]; 10 mg/kg/dose PO, Day 14",87%
same,RTG Day 14,"[2]; 10 mg/kg/dose PO, Day 14",9.66
same,%T/C,"[2]; 10 mg/kg/dose PO, Day 21",64%
same,RTG Day 21,"[2]; 10 mg/kg/dose PO, Day 21",11.49
same,S/T,[2]; 10 mg/kg/dose PO,5/5
same,%T/C,"[2]; 20 mg/kg/dose PO, Day 7",118%
same,RTG Day 7,"[2]; 20 mg/kg/dose PO, Day 7",5.40
same,%T/C,"[2]; 20 mg/kg/dose PO, Day 14",96%
same,RTG Day 14,"[2]; 20 mg/kg/dose PO, Day 14",10.56
same,%T/C,"[2]; 20 mg/kg/dose PO, Day 21",84%
same,RTG Day 21,"[2]; 20 mg/kg/dose PO, Day 21",14.56
same,S/T,[2]; 20 mg/kg/dose PO,5/5
same,%T/C,"[2]; 40 mg/kg/dose PO, Day 7",75%
same,RTG Day 7,"[2]; 40 mg/kg/dose PO, Day 7",3.40
same,%T/C,"[2]; 40 mg/kg/dose PO, Day 14",53%
same,RTG Day 14,"[2]; 40 mg/kg/dose PO, Day 14",5.93
same,%T/C,"[2]; 40 mg/kg/dose PO, Day 21",41%
same,RTG Day 21,"[2]; 40 mg/kg/dose PO, Day 21",7.15
same,S/T,[2]; 40 mg/kg/dose PO,5/5
same,inhibition of tumor growth in vivo,[2]; summary statement in words,effective inhibitor of tumor growth in vivo
"CN(C)CCCCN1CCOc2cc3ncc(C#N)c(Nc4ccc(F)c(Cl)c4)c3cc21 [Example 12, 9-(3-Chloro-4-fluoroanilino)-1-[4-(dimethylamino)butyl]-2,3-dihydro-1H-[1,4]oxazino[3,2-g]quinoline-8-carbonitrile]",inhibition at 0.5 µM,[1],53.5%
same,IC50,SW620,1.5 µg/mL
same,IC50,Her2Neu,> 5 µg/mL
same,IC50,A431,0.47 µg/mL
same,IC50,SKBR3,0.649 µg/mL
same,IC50,3T3,1.49 µg/mL
same,IC50,MDA435,2.36 µg/mL
same,inhibition at 10 µg/mL,c-Met,66%
